Earlier results on two molecules are cited in patent US20090022794A1, “Topiramate Tablet Formulation” (priority 2005, published 2009).

The conditions of data set [1]: relative humidity as high as 90%.

The structures appear in SMILES notation. In brackets after ≈: the same amount, converted by molar mass.

Take `OC[C@@H](O)[C@@H](O)[C@H](O)[C@H](O)CO` [Mannitol]: the moisture picked up entry in data set [1] was “less than 1%”. Regarding `CC1(C)O[C@@H]2[C@@H](CO[C@@]3(COS(N)(=O)=O)OC(C)(C)O[C@@H]23)O1` [Topiramate, 2,3:4,5-Bis-O-(1-methylethylidene)-β-D-fructopyranose sulfamate], where the note is “alkaline solutions, acetone, dimethylsulfoxide, ethanol”, the “solubility in alkaline solutions, acetone, dimethylsulfoxide and ethanol” value is on record as “soluble”. Moreover, where the note is “water”, the solubility in water is 9800 µg/mL (≈ 28.9 mM).
